Experiments:
[1] = target: T1, engineered chimeric LGIC receptor SEQ ID NO:41 (as SEQ ID NO:33, further comprising the β1-β2 loop domain from GlyRα1) (Homo sapiens, UniProt P36544, F159M/H163T/I152M/K68T/N69T/Q70M/R155K/V154L/W156N/Y151P); experiment: Two electrode voltage clamp currents in Xenopus oocytes expressing the receptor; assay type: cell-based; conditions: FIG. 5
T1 construct: expressed in transfected cells; host or cells: Xenopus oocytes (cDNA injection)
Procedure: (§1) For Xenopus oocyte studies, injections of cDNAs encoding for ion channels at a final concentration of 0.04 μg/μL were performed using a proprietary automated injection device and receptor expression examined at least two days later. Oocytes were poked with two electrodes and their membrane potential maintained at −80 mV throughout the experiment. All recordings were performed at 18° C. and cells were superfused with OR2 medium containing in mM: NaCl 82.5, KCl 2.5, HEPES 5, CaCl2.2H2O 1.8, MgCl2.6H2O 1, pH 7.4. Recordings progressed if oocytes had sufficiently low holding current, in which case they were then subjected to ligand or test compound application (5-10 s wash intervals), with 100 s of wash in between doses. Currents evoked by acetylcholine or other agonists were recorded using an automated process equipped with standard two electrode voltage clamp configuration (TEVC). Data were captured and analyzed using HiQScreen proprietary data acquisition and analysis software running under Matlab (Mathworks Inc.). Acetylcholine was prepared as a concentrated stock solution (10-1 M) in water and then diluted in the recording medium to obtain the desired test concentration. Nicotine was diluted in water as stock solution (10-1 M), kept frozen and diluted immediately prior to the experiment at the desired concentration. Compounds were prepared as stock solution (10-1M) in OR2 and then diluted in the recording medium to obtain the desired test concentration. Stock solution for Compound-1 was made in OR2 at pH 5 adjusted with HCl. To assess that dilution at the final concentration of this stock solution introduced no significant changes, the pH of the final solution was confirmed using a colorimetric assay (Galietta L. J. V., et al. 2001. FEBS Letters 499: 220-224. Kruger W., et al. (2005). Neuroscience Letters 380: 340-345.)
(§2) To better understand the impact of the heterologous domains that had been inserted into the channels, the ligand-dependent response profiles of wild type α7-nAChR and various engineered chimeric LGIC receptors to acetylcholine as well as to non-native ligands TC-6987, AZD-0328, and Facinicline/RG3487 were assessed. Receptors were transiently expressed in […] cells and currents were measured on an automated patch clamp system (Fluxion Biosciences) following 1 second addition of drug. Inclusion of a GlyRα1 Cys-loop sequence in the extracellular domain increased the potency of all small molecules on the engineered receptor (leftward shift in EC50) (e.g. SEQ ID NO:35, FIG. 4C vs SEQ ID NO:16, FIG. 4B). […] Inclusion of both the Cys-loop and β1-β2 loop sequences of GlyRα1 in the extracellular domain reduced the sensitivity by about 1 log from that observed with the full Cys-loop sequence alone, but further increased conductance approximately 2-fold and slowed the rate of deactivation of the channel (SEQ ID NO:41, FIG. 4E vs. SEQ ID NO:33, FIG. 4D).

[2] = target: T2, engineered chimeric LGIC receptor SEQ ID NO:33 (α7-nAChR ligand binding domain with GlyRα1 Cys-loop, GlyRα1 ion pore domain) (Homo sapiens, UniProt P36544, F159M/H163T/I152M/R155K/V154L/W156N/Y151P); experiment: as above; assay type: cell-based
T2 construct: expressed in transfected cells; host or cells: Xenopus oocytes (cDNA injection)
Procedure: as §1, §2

[3] = system: spared nerve injury (SNI) model; experiment: Spared nerve injury (SNI) model of neuropathic pain, mechanical withdrawal threshold (von Frey, up-down method) after AAV.hSYN-α7-nAChR/GlyRα1 injection; assay type: in vivo, rat; conditions: single IP injection
Text: Eight expression cassettes are constructed using standard molecular biology techniques. All contain a human synapsin-1 (hSYN) promoter linked to engineered chimeric receptors comprising a ligand binding domain of α7-nAChR and a Cys-loop domain and ion pore domain of GlyRα1. Their design is as follows:
These cassettes are subcloned into AAV bacmids, purified, transfected into Sf9 insect cells to produce recombinant bacuvlovirus, and then amplified. Sf9 cells are double infected using the amplified recombinant baculovirus containing the hSYN-α7-nAChR/GlyRα1 cassettes and another recombinant baculovirus containing the Rep and AAV6(Y705+731F+T492V) Cap genes to produce recombinant AAV vectors. The viral vectors are purified, viral titer determined using qPCR, and SDS-PAGE used to verify the purity of AAV vectors.
To produce mechanical hypersensitivity in a model that mimics a neuropathic pain condition, the spared nerve injury (SNI) model (a validated model of mechanical allodynia) is used (Shields et al., 2003, The Journal of Pain, 4, 465-470). This model is produced by the sectioning of the common peroneal and the sural nerves and isolating the tibial branch. Mechanical withdrawal threshold is assessed by placing rats on an elevated wire-mesh grid and stimulating the plantar surface of the hind paw with von Frey filaments.
A dorsal hemilaminectomy is made at the level of the lumbar enlargement to expose two segments (about 1.5-2 mm) of lumbar spinal cord, after which the dura mater is incised and reflected. The viral solution is loaded into a glass micropipette (prefilled with mineral oil). The micropipette is connected to a manual micro-injector mounted on a stereotactic apparatus. The viral solution is targeted to the dorsal horn (left side). Along the rostro-caudal axis within the exposed region, 6 injections of 240 nl each are performed, in an equidistant linear fashion. After each injection, 1 min of resting time is observed and then the muscle layer is sutured, the skin closed with staples, and the animals were allowed to recover with heated-pad before they were returned to their home cages. Animals are perfused for histological analysis after the last behavior test.
The injection is performed with a borosilicate glass capillary (0.78/1 mm internal/external diameters) pulled to a fine point, attached by polyethylene tubing (0.4/0.8 mm internal/external diameters) to a syringe mounted in a microinjection pump. The needle is mounted on an extended arm of a stereotaxic frame swung to the outside (used to hold and manipulate the needle only). Tubing, syringe, and needle are all filled with water. One microliter air is taken up into the needle followed by 3 μL of the viral vector solution. The needle is loaded separately with this volume for each injection. Animals are anesthetized prior to surgery. Following an incision along the dorsal midline, the L4 and L5 DRG are exposed by removal of the lateral processes of the vertebrae. The epineurium lying over the DRG is opened, and the glass needle inserted into the ganglion, to a depth of 400 μm from the surface of the exposed ganglion. After a 3-minute delay to allow sealing of the tissue around the glass capillary tip, 1.1 μL virus solution was injected at a rate of 0.2 μL/minute. After a further delay of 2 minutes, the needle is removed. The L4 ganglion is injected first followed by the L5 ganglion. The muscles overlying the spinal cord are loosely sutured together with a 5-0 suture and the wound closed. Animals are allowed to recover at 37° C. and received postoperative analgesia.
Rats are first anesthetized and then placed vertically with their head fixed in a stereotaxic frame. An incision is made in the base of the neck to expose the groove in the nuchal crest. An incision is made (1-2 mm) in the cisternal membrane to a depth such that cerebrospinal fluid leaks out. […]

T2 sequence (P36544 with tags, fused parts or gaps Y151P/I152M/V154L/R155K/W156N/F159M/H163T): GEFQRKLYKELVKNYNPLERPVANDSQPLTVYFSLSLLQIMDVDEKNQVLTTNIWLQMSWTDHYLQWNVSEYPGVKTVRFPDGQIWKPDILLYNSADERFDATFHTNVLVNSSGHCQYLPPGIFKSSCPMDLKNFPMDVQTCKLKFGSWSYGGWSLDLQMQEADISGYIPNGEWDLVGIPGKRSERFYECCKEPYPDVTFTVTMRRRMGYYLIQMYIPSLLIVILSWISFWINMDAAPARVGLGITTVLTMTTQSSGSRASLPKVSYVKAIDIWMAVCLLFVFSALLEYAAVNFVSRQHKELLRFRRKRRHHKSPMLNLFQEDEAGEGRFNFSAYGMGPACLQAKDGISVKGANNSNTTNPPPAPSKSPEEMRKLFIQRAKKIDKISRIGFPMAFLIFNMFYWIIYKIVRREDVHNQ
T1 sequence (P36544 with tags, fused parts or gaps K68T/N69T/Q70M/Y151P/I152M/V154L/R155K/W156N/F159M/H163T): as the sequence (P36544 with tags, fused parts or gaps Y151P/I152M/V154L/R155K/W156N/F159M/H163T) above, with K46T, N47T, Q48M counted along it

Compound: O=C(N[C@@H]1C2CCN(CC2)[C@H]1Cc1cccnc1)c1cc(F)cc(F)c1 [TC-6987]
- sensitivity of SEQ ID NO:41 to ligand compared with wild type α7-nAChR [1]: comparably sensitive
- sensitivity of SEQ ID NO:33 to ligand compared with wild type α7-nAChR ([2]; Xenopus oocytes, FIG. 5): approximately as sensitive
- agonist activity on SEQ ID NO:33 ([2]; similar to wild type): partial agonist activity

Compound: CN1CCCC1c1cccnc1 (stereo not shown) [nicotine]
- EC50 on SEQ ID NO:41 fold larger (right shifted) than for wild type [1]: ~7 fold
- fold less sensitive than wild type α7-nAChR ([2]; Xenopus oocytes, FIG. 5): approximately 2 fold

Compound: O=C(N[C@@H]1CN2CCC1CC2)c1n[nH]c2ccccc12 [Facinicline/RG3487]
- EC50 on SEQ ID NO:41 fold lower (left shifted) than for wild type [1]: approximately 2 fold
- sensitivity of SEQ ID NO:41 compared with SEQ ID NO:33 [1]: less sensitive
- fold more sensitive than wild type α7-nAChR ([2]; Xenopus oocytes, FIG. 5): ~10 fold
- reversal of mechanical hypersensitivity ([3]; high dose of ligand, all rats (Chimera 1-8)): complete reversal
- reversal of mechanical hypersensitivity ([3]; low dose, rats receiving Chimera 1, 2, 4, 5, 6 and 8): complete reversal
- reversal of mechanical hypersensitivity ([3]; low dose, rats receiving Chimera 3 and 7): partial reversal

Compound: c1ccc(-c2nnc(O[C@@H]3C4CC5C[C@H]3CN(C5)C4)s2)cc1 [ABT-126]
- sensitivity of SEQ ID NO:41 to ligand compared with wild type α7-nAChR [1]: comparably sensitive
- sensitivity of SEQ ID NO:33 to ligand compared with wild type α7-nAChR ([2]; Xenopus oocytes, FIG. 5): approximately as sensitive

— patent US10538571B2, “Compositions and methods for neurological diseases” (Coda Biotherapeutics, Inc., priority 2017, dated 2020)
